From ChEMBL document CHEMBL1151757, “Synthesis, radiosynthesis, and biological evaluation of fluorine-18-labeled 2beta-carbo(fluoroalkoxy)-3beta-(3'-((Z)-2-haloethenyl)phenyl)nortropanes: candidate radioligands for in vivo imaging of the serotonin transporter with positron emission tomography” (J Med Chem, 2008)

Tests used:
[1] = Drug uptake in awake rhesus monkey cerebellum after 1.8 mins postinjection; format: ADME, organism-based, Macaca mulatta; details: in vivo, 0.03 h
[2] = Drug uptake in awake rhesus monkey brain medulla after 65 mins postinjection; format: ADME, organism-based, Macaca mulatta; details: in vivo
[3] = Ratio of drug uptake in pons to cerebellum in awake rhesus monkey after 7.5 mins postinjection; format: ADME, organism-based, Macaca mulatta; details: in vivo, 0.125 h
[4] = Drug uptake in awake rhesus monkey occipital lobe after 4.5 mins postinjection; format: ADME, organism-based, Macaca mulatta; details: in vivo, 0.075 h
[5] = Ratio of drug uptake in occipital lobe to cerebellum in awake rhesus monkey after 65 mins postinjection; format: ADME, organism-based, Macaca mulatta; details: in vivo
[6] = Drug uptake in awake rhesus monkey occipital lobe after 85 mins postinjection; format: ADME, organism-based, Macaca mulatta; details: in vivo
[7] = Drug uptake in awake rhesus monkey midbrain after 1.8 mins postinjection; format: ADME, organism-based, Macaca mulatta; details: in vivo, 0.03 h
[8] = Ratio of drug uptake in caudate to cerebellum in awake rhesus monkey after 10.5 mins postinjection; format: ADME, organism-based, Macaca mulatta; details: in vivo, 0.175 h
[9] = Drug uptake in awake rhesus monkey medulla after 0.8 mins postinjection; format: ADME, organism-based, Macaca mulatta, Medulla of organ; details: in vivo, 48 s
[10] = Ratio of drug uptake in occipital lobe to cerebellum in awake rhesus monkey after 13.5 mins postinjection; format: ADME, organism-based, Macaca mulatta; details: in vivo, 0.225 h
[11] = Ratio of drug uptake in putamen to cerebellum in awake rhesus monkey after 0.3 mins postinjection; format: ADME, organism-based, Macaca mulatta; details: in vivo, 0.005 h
[12] = Ratio of drug uptake in frontal lobe to cerebellum in awake rhesus monkey after 65 mins postinjection; format: ADME, organism-based, Macaca mulatta; details: in vivo
[13] = Ratio of drug uptake in frontal lobe to cerebellum in awake rhesus monkey after 0.8 mins postinjection; format: ADME, organism-based, Macaca mulatta; details: in vivo, 48 s
[14] = Ratio of drug uptake in thalamus to cerebellum in awake rhesus monkey after 105 mins postinjection; format: ADME, organism-based, Macaca mulatta; details: in vivo, 1.75 h
[15] = Drug uptake in awake rhesus monkey occipital lobe after 25 mins postinjection; format: ADME, organism-based, Macaca mulatta; details: in vivo
[16] = Drug uptake in awake rhesus monkey medulla after 2.3 mins postinjection; format: ADME, organism-based, Macaca mulatta, Medulla of organ; details: in vivo, 138 s
[17] = Drug uptake in awake rhesus monkey occipital lobe after 55 mins postinjection; format: ADME, organism-based, Macaca mulatta; details: in vivo
[18] = Ratio of drug uptake in occipital lobe to cerebellum in awake rhesus monkey after 10.5 mins postinjection; format: ADME, organism-based, Macaca mulatta; details: in vivo, 0.175 h
[19] = Drug uptake in awake rhesus monkey putamen after 0.3 mins postinjection; format: ADME, organism-based, Macaca mulatta; details: in vivo, 0.005 h
[20] = Drug uptake in awake rhesus monkey cerebellum after 0.3 mins postinjection; format: ADME, organism-based, Macaca mulatta; details: in vivo, 0.005 h
[21] = Ratio of drug uptake in occipital lobe to cerebellum in awake rhesus monkey after 4.5 mins postinjection; format: ADME, organism-based, Macaca mulatta; details: in vivo, 0.075 h
[22] = Ratio of drug uptake in putamen to cerebellum in awake rhesus monkey after 0.8 mins postinjection; format: ADME, organism-based, Macaca mulatta; details: in vivo, 48 s
[23] = Drug uptake in awake rhesus monkey brain caudate after 85 mins postinjection; format: ADME, organism-based, Macaca mulatta, Caudate nucleus; details: in vivo
[24] = Drug uptake in awake rhesus monkey brain pons after 65 mins postinjection; format: ADME, organism-based, Macaca mulatta; details: in vivo
[25] = Drug uptake in awake rhesus monkey midbrain after 0.3 mins postinjection; format: ADME, organism-based, Macaca mulatta; details: in vivo, 0.005 h
[26] = Ratio of drug uptake in frontal lobe to cerebellum in awake rhesus monkey after 4.5 mins postinjection; format: ADME, organism-based, Macaca mulatta; details: in vivo, 0.075 h
[27] = Drug uptake in awake rhesus monkey caudate after 2.8 mins postinjection; format: ADME, organism-based, Macaca mulatta, Caudate nucleus; details: in vivo, 168 s
[28] = Ratio of drug uptake in midbrain to cerebellum in awake rhesus monkey after 4.5 mins postinjection; format: ADME, organism-based, Macaca mulatta; details: in vivo, 0.075 h
[29] = Drug uptake in awake rhesus monkey brain putamen after 65 mins postinjection; format: ADME, organism-based, Macaca mulatta; details: in vivo
[30] = Drug uptake in awake rhesus monkey occipital lobe after 105 mins postinjection; format: ADME, organism-based, Macaca mulatta; details: in vivo, 1.75 h
[31] = Drug uptake in awake rhesus monkey thalamus after 1.8 mins postinjection; format: ADME, organism-based, Macaca mulatta; details: in vivo, 0.03 h
[32] = Drug uptake in awake rhesus monkey occipital lobe after 2.3 mins postinjection; format: ADME, organism-based, Macaca mulatta; details: in vivo, 138 s
[33] = biological target: Sodium-dependent noradrenaline transporter (Homo sapiens, UniProt P23975); test: Displacement of [3H]nisoxetine from human NET transfected in human HEK293 cells; format: cell-based
[34] = Drug uptake in awake rhesus monkey brain putamen after 95 mins postinjection; format: ADME, organism-based, Macaca mulatta; details: in vivo
[35] = Drug uptake in awake rhesus monkey occipital lobe after 35 mins postinjection; format: ADME, organism-based, Macaca mulatta; details: in vivo
[36] = Drug uptake in anesthetized cynomolgus monkey brain frontal lobe after 205 mins postinjection; format: ADME, organism-based, Macaca fascicularis; details: in vivo
[37] = Drug uptake in anesthetized cynomolgus monkey brain cerebellum after 185 mins postinjection; format: ADME, organism-based, Macaca fascicularis; details: in vivo
[38] = Drug uptake in anesthetized cynomolgus monkey brain cerebellum after 105 mins postinjection; format: ADME, organism-based, Macaca fascicularis; details: in vivo, 1.75 h
Midbrain [39] = test: Drug uptake in anesthetized cynomolgus monkey brain midbrain after 207.5 mins postinjection; format: ADME, organism-based, Macaca fascicularis; details: in vivo
[40] = Drug uptake in anesthetized cynomolgus monkey brain frontal lobe after 207.5 mins postinjection; format: ADME, organism-based, Macaca fascicularis; details: in vivo
Putamen = test: Drug uptake in anesthetized cynomolgus monkey brain putamen after 182.5 mins postinjection; format: ADME, organism-based, Macaca fascicularis; details: in vivo
Midbrain [41] = test: Drug uptake in anesthetized cynomolgus monkey brain midbrain after 182.5 mins postinjection; format: ADME, organism-based, Macaca fascicularis; details: in vivo
[42] = Drug uptake in anesthetized cynomolgus monkey brain cerebellum after 197.5 mins postinjection; format: ADME, organism-based, Macaca fascicularis; details: in vivo
[43] = Drug uptake in anesthetized cynomolgus monkey brain occipital lobe after 202.5 mins postinjection; format: ADME, organism-based, Macaca fascicularis; details: in vivo, 3.375 h
Medulla = test: Drug uptake in anesthetized cynomolgus monkey brain medulla after 187.5 mins postinjection; format: ADME, organism-based, Macaca fascicularis; details: in vivo, 3.125 h
Thalamus = test: Drug uptake in anesthetized cynomolgus monkey brain thalamus after 197.5 mins postinjection; format: ADME, organism-based, Macaca fascicularis; details: in vivo
Pons = test: Drug uptake in anesthetized cynomolgus monkey brain pons after 207.5 mins postinjection; format: ADME, organism-based, Macaca fascicularis; details: in vivo
[44] = Ratio of drug uptake in thalamus to cerebellum in awake rhesus monkey after 75 mins postinjection; format: ADME, organism-based, Macaca mulatta; details: in vivo, 1.25 h
[45] = Protein binding in anesthetized cynomolgus monkey plasma after 30 mins postinjection; format: ADME, organism-based, Macaca fascicularis; details: read-out: PPB (converted)
[46] = Drug uptake in awake rhesus monkey brain midbrain after 1.25 mins postinjection; format: ADME, organism-based, Macaca mulatta; details: in vivo, 75 s
[47] = Drug uptake in awake rhesus monkey brain frontal lobe after 2.75 mins postinjection; format: ADME, organism-based, Macaca mulatta; details: in vivo, 165 s
[48] = Drug uptake in awake rhesus monkey brain putamen after 1.25 mins postinjection; format: ADME, organism-based, Macaca mulatta; details: in vivo, 75 s
[49] = Ratio of drug uptake in caudate to cerebellum in awake rhesus monkey after 17.5 mins postinjection; format: ADME, organism-based, Macaca mulatta; details: in vivo
[50] = Ratio of drug uptake in medulla to cerebellum in awake rhesus monkey after 85 mins postinjection; format: ADME, organism-based, Macaca mulatta; details: in vivo
[51] = Drug uptake in awake rhesus monkey brain cerebellum after 0.75 mins postinjection; format: ADME, organism-based, Macaca mulatta; details: in vivo, 45 s
[52] = Drug uptake in awake rhesus monkey brain medulla after 0.25 mins postinjection; format: ADME, organism-based, Macaca mulatta; details: in vivo, 15 s
[53] = Protein binding in anesthetized cynomolgus monkey plasma after 5 mins postinjection; format: ADME, organism-based, Macaca fascicularis; details: read-out: PPB (converted)
[54] = Ratio of drug uptake in putamen to cerebellum in awake rhesus monkey after 4.5 mins postinjection; format: ADME, organism-based, Macaca mulatta; details: in vivo, 0.075 h
[55] = Ratio of drug uptake in caudate to cerebellum in awake rhesus monkey after 13.5 mins postinjection; format: ADME, organism-based, Macaca mulatta; details: in vivo, 0.225 h
[56] = Metabolic stability in anesthetized cynomolgus monkey plasma after 180 mins postinjection; format: ADME, organism-based, Macaca fascicularis; details: read-out: Stability
[57] = Drug uptake in awake rhesus monkey brain pons after 0.25 mins postinjection; format: ADME, organism-based, Macaca mulatta; details: in vivo, 15 s
[58] = Ratio of drug uptake in frontal lobe to cerebellum in awake rhesus monkey after 45 mins postinjection; format: ADME, organism-based, Macaca mulatta; details: in vivo, 0.75 h
[59] = Ratio of drug uptake in midbrain to cerebellum in awake rhesus monkey after 35 mins postinjection; format: ADME, organism-based, Macaca mulatta; details: in vivo
[60] = Drug uptake in awake rhesus monkey brain frontal lobe after 1.75 mins postinjection; format: ADME, organism-based, Macaca mulatta; details: in vivo, 105 s
[61] = Protein binding in anesthetized cynomolgus monkey plasma after 60 mins postinjection; format: ADME, organism-based, Macaca fascicularis; details: read-out: PPB (converted)
[62] = Drug uptake in awake rhesus monkey brain cerebellum after 115 mins postinjection; format: ADME, organism-based, Macaca mulatta; details: in vivo

Sodium-dependent noradrenaline transporter, sequence (P23975 whole entry): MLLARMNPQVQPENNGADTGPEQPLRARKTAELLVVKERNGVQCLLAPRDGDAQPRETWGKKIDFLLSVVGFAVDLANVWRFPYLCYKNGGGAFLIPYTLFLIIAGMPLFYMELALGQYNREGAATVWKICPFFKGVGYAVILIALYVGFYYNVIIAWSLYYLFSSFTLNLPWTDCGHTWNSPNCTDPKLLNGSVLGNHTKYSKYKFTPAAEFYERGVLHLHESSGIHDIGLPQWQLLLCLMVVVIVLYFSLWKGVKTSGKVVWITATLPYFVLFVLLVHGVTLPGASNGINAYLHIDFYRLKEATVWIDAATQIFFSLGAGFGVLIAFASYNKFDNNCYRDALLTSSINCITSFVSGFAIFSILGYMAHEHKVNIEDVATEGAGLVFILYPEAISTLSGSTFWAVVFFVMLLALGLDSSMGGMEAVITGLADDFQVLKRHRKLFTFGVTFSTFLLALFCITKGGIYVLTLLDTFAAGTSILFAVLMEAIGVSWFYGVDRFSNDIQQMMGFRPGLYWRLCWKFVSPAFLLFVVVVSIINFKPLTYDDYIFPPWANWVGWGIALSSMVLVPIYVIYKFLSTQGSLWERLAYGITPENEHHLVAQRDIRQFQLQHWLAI

O=C(OCC[18F])C1C2CCC(CC1c1ccc(/C=C\I)cc1)N2 (centres undefined)
Drug uptake [1]: 0.27 | Drug uptake [2]: 2.28 | Ratio [3]: 0.9 | Drug uptake [4]: 0.96 | Ratio [5]: 1.6 | Drug uptake [6]: 2.74 | Drug uptake [7]: 0.25 | Ratio [8]: 1 | Drug uptake [9]: 0 | Ratio [10]: 1 | Ratio [11]: 5.1 | Ratio [12]: 1.3 | Ratio [13]: 0 | Ratio [14]: 2.8 | Drug uptake [15]: 2.48 | Drug uptake [16]: 0.68 | Drug uptake [17]: 2.73 | Ratio [18]: 0.9 | Drug uptake [19]: 0.05 | Drug uptake [20]: 0.01 | Ratio [21]: 0.9 | Ratio [22]: 7.2 | Drug uptake [23]: 3.27 | Drug uptake [24]: 2.49 | Drug uptake [25]: 0.08 | Ratio [26]: 0.9 | Drug uptake [27]: 0.53 | Ratio [28]: 1 | Drug uptake [29]: 3.31 | Drug uptake [30]: 2.58 | Drug uptake [31]: 0.32 | Drug uptake [32]: 0.36 | Ki [33]: 28 nM | Drug uptake [34]: 3.34 | Drug uptake [35]: 2.65

O=C(OCCC[18F])C1C2CCC(CC1c1cccc(/C=C\I)c1)N2 (centres undefined)
Drug uptake [36]: 1.89 | Drug uptake [37]: 2.18 | Drug uptake [38]: 3.31

O=C(OCCC[18F])C1C2CCC(CC1c1cccc(/C=C\Br)c1)N2 (centres undefined)
Drug uptake (Midbrain [39]): 4.46 | Drug uptake [40]: 2.03 | Drug uptake (Putamen): 4.09 | Drug uptake (Midbrain [41]): 4.79 | Drug uptake [42]: 2.16 | Drug uptake [43]: 2.71 | Drug uptake (Medulla): 4.04 | Drug uptake (Thalamus): 3.74 | Drug uptake (Pons): 3.24

O=C(OCC[18F])C1C2CCC(CC1c1cccc(/C=C\I)c1)N2 (centres undefined)
Ratio [44]: 1.5 | Drug uptake [2]: 0.12 | Drug uptake (Midbrain [39]): 3.17 | Ratio [3]: 1 | fraction unbound at 0.5 h [45]: 0.916 | Drug uptake [46]: 0.01 | Drug uptake [47]: 0.03 | Drug uptake (Putamen): 2.78 | Drug uptake (Midbrain [41]): 3.4 | Drug uptake [42]: 1.41 | Ratio [14]: 1.7 | Drug uptake [48]: 0.01 | Drug uptake [43]: 1.33 | Ratio [49]: 1.2 | Ratio [50]: 1.1 | Drug uptake (Medulla): 2.64 | Drug uptake [51]: 0 | Drug uptake [52]: 0 | Drug uptake [23]: 0.14 | fraction unbound at 5 min [53]: 0.925 | Drug uptake [24]: 0.14 | Ratio [54]: 1.3 | Ratio [55]: 1.1 | remaining at 3 h [56]: 13% | Drug uptake [57]: 0 | Ratio [58]: 1 | Drug uptake (Thalamus): 2.46 | Ratio [59]: 1.3 | Drug uptake [60]: 0.02 | fraction unbound at 1 h [61]: 0.915 | Drug uptake [29]: 0.16 | Drug uptake [62]: 0.08 | Drug uptake (Pons): 2.19 | Drug uptake [34]: 0.16

O=C(OCC[18F])C1C2CCC(CC1c1cccc(/C=C\Br)c1)N2 (centres undefined)
Drug uptake [36]: 1.98 | Drug uptake [37]: 1.86 | Drug uptake [38]: 2.87
